Measured values reported in patent US20140287120A1, “ORGANIC COMPOUNDS” (Givaudan S.A, priority 2011, published 2014).

Experiment: Taste panel: intensity of umami and salt taste of solution B compared with reference solution A
Settings: 10 ppm in a solution of 0.5% NaCl and 0.03% MSG, compared with solution A without compound; average rating of 4 flavourists; scale -3 (much lower than base) to 3 (much higher than base), 0 = same as base, 1 = slightly higher than base
Description: Two solutions were prepared:
A a solution of 0.5% NaCl and 0.03% MSG
B a solution of 0.5% NaCl and 0.03% MSG and 10 ppm Example 1 compound
The samples were tasted by a small group of flavourists (2 male, 2 female, aged between 30 and 60). The intensity of the umami and salt taste of solution B was compared with that of the reference (solution A) and rated according to the following intensity scale:
Taste effect much lower than base: −3
Taste effect lower than base: −2
Taste effect slightly lower than base: −1
Taste effect same as base: 0
Taste effect slightly higher than base: 1
Taste effect higher than base: 2
Taste effect much higher than base: 3
The results (average of rating given by the flavourists) were: […]

## CC(N)(CCC(=O)O)C(=O)O (racemic) [DL-2-methylglutamic acid, DL-2-Methylglutamic Acid]
  Intensity Taste Salt (NaCl): 1.00
  Intensity Taste Umami: 0.00
